2 molecules from ChEMBL document CHEMBL1127138, “2-substituted penems, new candidates for cephalosporinase inhibitors” (Bioorg Med Chem Lett, 1993) can be followed below.

A short description of assay [1]: Tested for the inhibitory activity against beta-lactamase type CTX-1 at dose of 0.66 ug/mL using substrate cephaloridine (CER); (CTX-1 enzyme activity is 0.7363 U/ml).
In assay [2] the target is Beta-lactamase (Pseudomonas aeruginosa (strain ATCC 15692 / PAO1 / 1C / PRS 101 / LMG12228)) (UniProt P24735). Briefly: Tested for the inhibitory activity against beta-lactamase, Pseudomonas aeruginosa at dose of 0.66 ug/mL using substrate cephaloridine (CER); (P. Aeruginosa enzyme activity is 1.0352 U/ml).
Beta-lactamase (Pseudomonas aeruginosa (strain ATCC 15692 / PAO1 / 1C / PRS 101 / LMG12228)), sequence (P24735 27-397 limits assumed): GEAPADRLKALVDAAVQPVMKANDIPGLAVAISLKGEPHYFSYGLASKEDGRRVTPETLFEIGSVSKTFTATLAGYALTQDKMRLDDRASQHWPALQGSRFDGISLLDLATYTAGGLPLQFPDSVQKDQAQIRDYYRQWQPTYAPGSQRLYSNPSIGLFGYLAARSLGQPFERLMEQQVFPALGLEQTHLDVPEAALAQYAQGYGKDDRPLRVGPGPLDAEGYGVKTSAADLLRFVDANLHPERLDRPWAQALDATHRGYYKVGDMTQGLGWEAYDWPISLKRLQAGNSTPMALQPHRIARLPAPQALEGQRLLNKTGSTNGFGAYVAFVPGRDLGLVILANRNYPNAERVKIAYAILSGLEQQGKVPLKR
Assay [3] concerns the target Beta-lactamase (Enterobacter cloacae) (UniProt P05364). Briefly: Tested for the inhibitory activity against beta-lactamase, Enterobacter cloacae at dose of 0.66 ug/mL using substrate cephaloridine (CER).
For assay [4] the target is unchanged. Briefly: Tested for the inhibitory activity against beta-lactamase, Enterobacter cloacae at dose of 0.66 ug/mL using substrate cephaloridine (CER); (E. Cloacae enzyme activity is 1.1517 U/ml).
The target of assay [5] is TEM-1 beta-lactamase (Escherichia coli) (UniProt P62593). Briefly: Tested for the inhibitory activity against beta-lactamase type TEM-1 at dose of 0.66 ug/mL using substrate ampicillin (ABPC); (TEM-1 enzyme activity is 1.6328 U/mL).
TEM-1 beta-lactamase (Escherichia coli), sequence (P62593 whole entry, looked up): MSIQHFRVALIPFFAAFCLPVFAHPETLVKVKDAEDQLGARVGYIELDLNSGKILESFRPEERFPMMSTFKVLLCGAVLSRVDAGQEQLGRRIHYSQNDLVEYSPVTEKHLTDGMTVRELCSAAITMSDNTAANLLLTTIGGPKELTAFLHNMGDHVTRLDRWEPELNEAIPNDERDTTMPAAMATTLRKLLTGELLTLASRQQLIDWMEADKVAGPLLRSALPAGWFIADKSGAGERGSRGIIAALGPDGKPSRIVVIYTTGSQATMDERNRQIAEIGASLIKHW
The target in assay [6] is Beta-lactamase (Pseudomonas aeruginosa (strain ATCC 15692 / PAO1 / 1C / PRS 101 / LMG12228)) (UniProt P24735). The assay is described as follows: Tested for the inhibitory activity against beta-lactamase, Pseudomonas aeruginosa at dose of 10 ug/mL using substrate cephaloridine (CER); (P. Aeruginosa enzyme activity is 1.0352 U/ml).
For assay [7], the target named is TEM-1 beta-lactamase (Escherichia coli) (UniProt P62593). Briefly: Tested for the inhibitory activity against beta-lactamase type TEM-1 at dose of 10 ug/mL using substrate ampicillin (ABPC).
A short description of assay [8]: Tested for the inhibitory activity against beta-lactamase type CTX-1 at dose of 10 ug/mL using substrate cephaloridine (CER); (CTX-1 enzyme activity is 0.7363 U/ml).
The target in assay [9] is Beta-lactamase (Enterobacter cloacae) (UniProt P05364). The assay is described as follows: Tested for the inhibitory activity against beta-lactamase, Enterobacter cloacae at dose of 0.1 ug/mL using substrate cephaloridine (CER).
Beta-lactamase (Enterobacter cloacae), sequence (P05364 21-381 limits assumed): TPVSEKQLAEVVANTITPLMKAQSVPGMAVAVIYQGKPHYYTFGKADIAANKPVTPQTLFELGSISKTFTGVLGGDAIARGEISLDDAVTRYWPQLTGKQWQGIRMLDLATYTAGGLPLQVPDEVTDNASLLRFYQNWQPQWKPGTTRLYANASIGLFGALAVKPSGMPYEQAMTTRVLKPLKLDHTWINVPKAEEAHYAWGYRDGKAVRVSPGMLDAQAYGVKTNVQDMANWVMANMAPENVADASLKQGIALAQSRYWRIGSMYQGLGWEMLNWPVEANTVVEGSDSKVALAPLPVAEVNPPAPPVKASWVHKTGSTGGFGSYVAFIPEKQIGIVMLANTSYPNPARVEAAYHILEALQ
Assay [10] deals with TEM-1 beta-lactamase (Escherichia coli) (UniProt P62593). The assay is described as follows: Tested for the inhibitory activity against beta-lactamase type TEM-1 at dose of 0.1 ug/mL using substrate ampicillin (ABPC); (TEM-1 enzyme activity is 1.6328 U/mL).
Assay [11] concerns the target Beta-lactamase (Enterobacter cloacae) (UniProt P05364). The assay is described as follows: Tested for the inhibitory activity against beta-lactamase, Enterobacter cloacae at dose of 10 ug/mL using substrate cephaloridine (CER); (E. Cloacae enzyme activity is 1.1517 U/ml).

As a reminder, the inhibition is the share of the control response that was lost under treatment. Lower therefore signals little suppression. On to `Cc1nnc(SC2=C(C(=O)OC(c3ccccc3)c3ccccc3)N3C(=O)C[C@H]3S2)s1`, for which the inhibition worked out at 12% in assay [1]; 0% in [2]; 8% in assay [3]; 14% in assay [4]; 6% in [5].
On to `Cn1nnnc1SC1=C(C(=O)OC(c2ccccc2)c2ccccc2)N2C(=O)C[C@H]2S1`, for which the inhibition in [6] came to 16%; in assay [7] it was 28%; in assay [8] it was 19%; in [9] it was 10%; in assay [10], 2%; in assay [11] it was 45%.
